# According to patent US20240270809A1, “ORAL GLP RECEPTOR AGONISTS” (priority 2020, published 2024):
# Positions of bridges follow the written chain, without caps; N, C: chain ends. Non-standard residues stand in square brackets, D forms with d. Residues, ends and D or L forms follow the SMILES beside them. *: point of attachment. Malonyl(2,2-Me2,histaminyl) = CC(C)(C(=O)NCCc1cnc[nH]1)C(=O)*; Ala(1H-tetrazol-5-yl) = N[C@@H](Cc1nnn[nH]1)C(=O)O; αMePhe(2-F) = C[C@](N)(Cc1ccccc1F)C(=O)O; αMeL = CC(C)C[C@](C)(N)C(=O)O; Nle = CCCC[C@H](N)C(=O)O; Aib = CC(C)(N)C(=O)O
# Legend:
# Type in all cases: cell-based
# mouse GLP2 receptor = target: T1, mouse GLP2 receptor (Mus musculus, UniProt Q5IXF8); assay: cAMP accumulation assay, functional agonism of mouse GLP2 receptor; conditions: HEK cells transiently transfected with mouse GLP2 receptor, HTRF cAMP; for Emax: HEK293, read-out: Mouse GLP-2R agonist cAMP Emax; for EC50: read-out: Mouse GLP-2R agonist cAMP pEC50 (converted)
# T1 construct: expressed in transfected cells; host or cells: HEK cells, transient transfection with GeneJuice
# T1 sequence (Q5IXF8 1-512): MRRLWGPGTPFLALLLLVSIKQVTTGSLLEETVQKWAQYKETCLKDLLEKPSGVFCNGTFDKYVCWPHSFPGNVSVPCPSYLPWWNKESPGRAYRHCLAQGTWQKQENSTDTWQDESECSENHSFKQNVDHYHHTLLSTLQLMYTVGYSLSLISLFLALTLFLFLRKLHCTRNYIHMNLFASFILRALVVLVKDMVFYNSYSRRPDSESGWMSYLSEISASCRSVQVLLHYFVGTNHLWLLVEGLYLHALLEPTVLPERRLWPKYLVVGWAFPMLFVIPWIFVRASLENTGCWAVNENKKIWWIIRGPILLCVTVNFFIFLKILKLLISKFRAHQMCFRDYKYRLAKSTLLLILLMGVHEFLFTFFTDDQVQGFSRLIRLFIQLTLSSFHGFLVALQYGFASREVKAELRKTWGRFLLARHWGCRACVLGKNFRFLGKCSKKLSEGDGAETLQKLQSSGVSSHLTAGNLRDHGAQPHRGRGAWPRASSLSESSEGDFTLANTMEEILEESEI
# Procedure: CAMP production upon agonist stimulation of mouse GLP2 or GLP1 receptors was assessed utilizing HiRange cAMP kit (Cisbio). In brief, HEK cells were transiently transfected for 24 hours with cDNA using GeneJuice Transfection reagent (EMD Millipore) and frozen at −80° C. for later use in the assay. On the day, various concentrations of compounds were dispensed using ECHO-555 (LabCyte) to a total volume of 100 nl into a low volume 384-well Proxi plate (Perkin Elmer) followed by addition of 10 μl of cell suspension delivering 8000 cells per well. Cells were prepared in the assay buffer (HBSS (Lonza) supplemented with 0.5 mM IBMX (Tocris)). After 45 min incubation at 37° C., the reaction was stopped by addition of the HTRF detection reagents in the lysis buffer provided in the kit. Following 1-hour incubation at RT, plates were read on Pherastar FS (BMG Labtech, Inc.) using standard HTRF settings. Dotmatics Studies software was used for calculation of pEC50 values by fitting data to a four-parameter concentration response curve.
# human GLP1 receptor = target: T2, human GLP1 receptor (Homo sapiens, UniProt P43220); assay: cAMP accumulation assay, functional agonism of human GLP1 receptor; conditions: HEK cells infected with human GLP1 receptor BacMam virus, HTRF cAMP; for Emax: HEK293, read-out: Human GLP-1R agonist cAMP Emax; for EC50: read-out: Human GLP-1R agonist cAMP pEC50 (converted)
# T2 construct: expressed in transfected cells; host or cells: HEK cells, BacMam virus transduction
# How it was run: (§1)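 HTRF cAMP read-out: HEK cells expressing GLP1 or GLP2 receptor via 24 h BacMam infection, frozen before use; agonist exposure 45 min, 37° C, HBSS + 0.5 mM IBMX; stopped with detection reagents in lysis buffer.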
# human GLP2 receptor = target: T3, human GLP2 receptor (Homo sapiens, UniProt O95838); assay: cAMP accumulation assay, functional agonism of human GLP2 receptor; conditions: HEK cells infected with human GLP2 receptor BacMam virus, HTRF cAMP; for Emax: HEK293, read-out: Human GLP-2R agonist cAMP Emax; for EC50: read-out: Human GLP-2R agonist cAMP pEC50 (converted)
# T3 construct: expressed in transfected cells; host or cells: HEK cells, BacMam virus transduction
# T3 sequence (O95838 1-553): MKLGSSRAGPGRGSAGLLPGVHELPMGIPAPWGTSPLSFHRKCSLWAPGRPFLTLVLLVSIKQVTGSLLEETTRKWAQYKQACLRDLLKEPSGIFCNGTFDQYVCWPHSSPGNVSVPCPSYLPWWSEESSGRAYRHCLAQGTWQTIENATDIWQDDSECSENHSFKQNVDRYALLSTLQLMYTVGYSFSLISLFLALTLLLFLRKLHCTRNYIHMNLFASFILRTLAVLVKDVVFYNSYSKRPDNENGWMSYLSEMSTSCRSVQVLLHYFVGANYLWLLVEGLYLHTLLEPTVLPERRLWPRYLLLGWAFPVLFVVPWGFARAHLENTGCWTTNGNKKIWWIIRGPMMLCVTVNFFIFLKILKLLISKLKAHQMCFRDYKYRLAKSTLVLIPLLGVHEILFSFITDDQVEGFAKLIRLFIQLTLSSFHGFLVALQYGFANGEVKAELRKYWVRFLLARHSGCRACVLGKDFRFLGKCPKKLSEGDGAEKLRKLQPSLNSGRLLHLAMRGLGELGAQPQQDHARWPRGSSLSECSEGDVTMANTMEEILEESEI
# How it was run: as §1
# T2 sequence (P43220 24-463): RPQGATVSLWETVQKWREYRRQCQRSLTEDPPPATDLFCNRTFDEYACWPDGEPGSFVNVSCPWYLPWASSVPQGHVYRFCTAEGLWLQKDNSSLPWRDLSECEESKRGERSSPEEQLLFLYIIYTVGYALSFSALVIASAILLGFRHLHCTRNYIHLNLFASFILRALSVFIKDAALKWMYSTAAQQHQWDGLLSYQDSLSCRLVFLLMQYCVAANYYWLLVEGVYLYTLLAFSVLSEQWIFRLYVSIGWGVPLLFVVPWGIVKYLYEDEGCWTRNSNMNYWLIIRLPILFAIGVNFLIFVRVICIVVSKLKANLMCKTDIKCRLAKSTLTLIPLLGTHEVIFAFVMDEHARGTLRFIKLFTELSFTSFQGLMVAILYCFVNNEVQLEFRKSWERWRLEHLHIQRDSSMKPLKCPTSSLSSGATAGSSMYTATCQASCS
Structure (SMILES),Emax (mouse GLP2 receptor),EC50 (mouse GLP2 receptor),Emax (human GLP1 receptor),EC50 (human GLP1 receptor),Emax (human GLP2 receptor),EC50 (human GLP2 receptor)
"CCCC[C@@H]1NC(=O)[C@H](CCC(=O)O)NC(=O)[C@@H](NC(=O)[C@H](CO)NC(=O)[C@H](Cc2ccccc2)NC(=O)[C@H](CO)NC(=O)CNC(=O)[C@H](Cc2nn[nH]n2)NC(=O)C(C)(C)C(=O)NCCc2c[nH]cn2)CCCCNC(=O)C[C@@H](C(=O)N[C@H](C(=O)N[C@@H](CC(C)C)C(=O)N[C@@H](CC(=O)O)C(=O)N[C@H]2CC(=O)NCCCC[C@@H](C(=O)N[C@@H](CC(=O)O)C(=O)N[C@@H](Cc3ccccc3)C(=O)N[C@H](C(=O)N[C@@H](CC(N)=O)C(=O)N[C@@H](Cc3c[nH]c4ccccc34)C(=O)N[C@@H](CC(C)C)C(=O)N[C@H](C(=O)N[C@@H](CCC(N)=O)C(=O)N[C@H](C(=O)N[C@@H](CCCCN)C(=O)N[C@H](C(=O)N[C@H](C(=O)N[C@@H](Cc3ccccc3)C(N)=O)[C@@H](C)O)[C@@H](C)CC)[C@@H](C)O)[C@@H](C)CC)[C@@H](C)CC)NC(=O)[C@H](C)NC(=O)[C@H](C)NC(=O)[C@H](CCCCN)NC2=O)[C@@H](C)CC)NC(=O)[C@@H](Cc2ccccc2)NC1=O [Example 114] ({Malonyl(2,2-Me2,histaminyl)}-[Ala(1H-tetrazol-5-yl)]GSFSKE[Nle][dF]DILDDKAAKDFINWLIQTKITF-NH2; lactam 6-10, 14-18 (inferred); C-terminus assumed)",–,–,89.1%,3.16 nM,102%,0.02 nM
"CCCC[C@@H]1NC(=O)[C@H](CCC(=O)O)NC(=O)[C@@H](NC(=O)[C@H](CO)NC(=O)[C@H](Cc2ccccc2)NC(=O)[C@H](CO)NC(=O)CNC(=O)[C@H](Cc2nn[nH]n2)NC(=O)C(C)(C)C(=O)NCCc2c[nH]cn2)CCCCNC(=O)C[C@@H](C(=O)N[C@H](C(=O)N[C@@H](CC(C)C)C(=O)N[C@@H](CC(=O)O)C(=O)N[C@H]2CCC(=O)NCCCC[C@@H](C(=O)N[C@@H](CC(=O)O)C(=O)N[C@@H](Cc3ccccc3)C(=O)N[C@H](C(=O)N[C@@H](CC(N)=O)C(=O)N[C@@H](Cc3c[nH]c4ccccc34)C(=O)N[C@@H](CC(C)C)C(=O)N[C@H](C(=O)N[C@@H](CCC(N)=O)C(=O)N[C@H](C(=O)N[C@@H](CCCCN)C(=O)N[C@H](C(=O)N[C@H](C(=O)N[C@@H](Cc3ccccc3)C(N)=O)[C@@H](C)O)[C@@H](C)CC)[C@@H](C)O)[C@@H](C)CC)[C@@H](C)CC)NC(=O)[C@H](C)NC(=O)[C@H](C)NC(=O)[C@H](CCCCN)NC2=O)[C@@H](C)CC)NC(=O)[C@@H](Cc2ccccc2)NC1=O [Example 115] ({Malonyl(2,2-Me2,histaminyl)}-[Ala(1H-tetrazol-5-yl)]GSFSKE[Nle][dF]DILDEKAAKDFINWLIQTKITF-NH2; lactam 6-10, 14-18 (inferred); C-terminus assumed)",–,–,92%,0.501 nM,104%,0.02 nM

# Continued, values first:
Emax (mouse GLP2 receptor),EC50 (mouse GLP2 receptor),Emax (human GLP1 receptor),EC50 (human GLP1 receptor),Emax (human GLP2 receptor),EC50 (human GLP2 receptor),Structure (SMILES)
86.4%,3.16 nM,97.1%,0.158 nM,103%,0.0158 nM,"CCCC[C@@H]1NC(=O)[C@H](CCC(=O)O)NC(=O)[C@@H](NC(=O)[C@H](CO)NC(=O)[C@](C)(Cc2ccccc2F)NC(=O)[C@H](CO)NC(=O)[C@@H](C)NC(=O)[C@H](CC(=O)O)NC(=O)C(C)(C)C(=O)NCCc2c[nH]cn2)CCCCNC(=O)C[C@@H](C(=O)N[C@H](C(=O)N[C@@H](CC(C)C)C(=O)N[C@@H](CC(=O)O)C(=O)N[C@H]2CCC(=O)NCCCC[C@@H](C(=O)N[C@@H](CC(=O)O)C(=O)N[C@@H](Cc3ccccc3)C(=O)N[C@H](C(=O)N[C@@H](CC(N)=O)C(=O)N[C@@H](Cc3c[nH]c4ccccc34)C(=O)N[C@@H](CC(C)C)C(=O)N[C@H](C(=O)N[C@@H](CCC(N)=O)C(=O)N[C@H]3CCC(=O)NCCCC[C@@H](C(N)=O)NC(=O)[C@H]([C@@H](C)O)NC(=O)[C@H]([C@@H](C)CC)NC(=O)[C@H](CCCCN)NC3=O)[C@@H](C)CC)[C@@H](C)CC)NC(=O)[C@H](C)NC(=O)[C@H](C)NC(=O)[C@H](CCCCN)NC2=O)[C@@H](C)CC)NC(=O)[C@@H](Cc2ccccc2)NC1=O [Example 26] ({Malonyl(2,2-Me2,histaminyl)}-D[dA]S[αMePhe(2-F)]SKE[Nle][dF]DILDEKAAKDFINWLIQEKITK-NH2; lactam 6-10, 14-18, 27-31 (inferred); C-terminus assumed)"
81%,7.94 nM,98.3%,0.1 nM,102%,0.0251 nM,"CCCC[C@@H]1NC(=O)[C@H](CCC(=O)O)NC(=O)[C@@H](NC(=O)[C@H](CO)NC(=O)[C@](C)(Cc2ccccc2F)NC(=O)[C@H](CO)NC(=O)[C@@H](C)NC(=O)[C@H](CC(=O)O)NC(=O)C(C)(C)C(=O)NCCc2c[nH]cn2)CCCCNC(=O)C[C@@H](C(=O)N[C@@](C)(CC(C)C)C(=O)N[C@@H](CC(C)C)C(=O)N[C@@H](CC(=O)O)C(=O)N[C@H]2CCC(=O)NCCCC[C@@H](C(=O)N[C@@H](CC(=O)O)C(=O)N[C@@H](Cc3ccccc3)C(=O)N[C@H](C(=O)N[C@H]3CCC(=O)NCCCC[C@@H](C(=O)N[C@H]4CCC(=O)NCCCC[C@@H](C(N)=O)NC(=O)[C@H]([C@@H](C)O)NC(=O)[C@H]([C@@H](C)CC)NC(=O)[C@H](CCCCN)NC4=O)NC(=O)[C@H]([C@@H](C)CC)NC(=O)[C@H](CC(C)C)NC(=O)[C@H](Cc4c[nH]c5ccccc45)NC3=O)[C@@H](C)CC)NC(=O)[C@H](C)NC(=O)[C@H](C)NC(=O)[C@H](CCCCN)NC2=O)NC(=O)[C@@H](Cc2ccccc2)NC1=O [Example 50] ({Malonyl(2,2-Me2,histaminyl)}-D[dA]S[αMePhe(2-F)]SKE[Nle][dF]D[αMeL]LDEKAAKDFIEWLIKEKITK-NH2; lactam 6-10, 14-18, 22-26, 27-31 (inferred); C-terminus assumed)"
–,–,92.1%,3.98 nM,104%,0.501 nM,"CCCC[C@@H]1NC(=O)[C@H](CCC(=O)O)NC(=O)[C@@H](NC(=O)[C@H](CO)NC(=O)[C@H](Cc2ccccc2)NC(=O)[C@H](CO)NC(=O)CNC(=O)[C@H](Cc2nn[nH]n2)NC(=O)C(C)(C)C(=O)NCCc2c[nH]cn2)CCCCNC(=O)C[C@@H](C(=O)N[C@H](C(=O)N[C@@H](CC(C)C)C(=O)N[C@@H](CC(=O)O)C(=O)N[C@@H](CC(C)C)C(=O)N[C@@H](CCCCN)C(=O)N[C@@H](C)C(=O)N[C@@H](C)C(=O)NC(C)(C)C(=O)N[C@@H](CC(=O)O)C(=O)N[C@@H](Cc2ccccc2)C(=O)N[C@H](C(=O)N[C@@H](CC(N)=O)C(=O)N[C@@H](Cc2c[nH]c3ccccc23)C(=O)N[C@@H](CC(C)C)C(=O)N[C@H](C(=O)N[C@@H](CCC(N)=O)C(=O)N[C@H](C(=O)N[C@H]2CCC(=O)NCCCC[C@@H](C(N)=O)NC(=O)[C@H]([C@@H](C)O)NC(=O)[C@H]([C@@H](C)CC)NC2=O)[C@@H](C)O)[C@@H](C)CC)[C@@H](C)CC)[C@@H](C)CC)NC(=O)[C@@H](Cc2ccccc2)NC1=O [Example 108] ({Malonyl(2,2-Me2,histaminyl)}-[Ala(1H-tetrazol-5-yl)]GSFSKE[Nle][dF]DILDLKAA[Aib]DFINWLIQTEITK-NH2; lactam 6-10, 28-31; C-terminus assumed)"
